Where two headings read alike, the source gives them in different places.
Tests used:
[1] = tested on: pressor response to AII; test: Inhibition of the pressor response to AII in conscious dogs; type: in vivo
Description: (§1) The hypotensive effects of 2-butyl-4-chloro-1-[2'-(1H-tetrazol-5-yl)biphenyl-4-yl)methyl]-5-hydroxymethylimidazole sodium salt were compared before and after furosemide administration to conscious dogs. […] Plasma renin activity (PRA) in these animals was 1.5±0.5 ng AI/ml/hr. Four days later, furosemide was given to three of these dogs at 10 mg/kg im at 18 and 2 hours before the experiment and increased PRA to 19.9±7.2 ng AI/ml/hr. […] Thus a combined therapy of these two classes of drugs will be likely to increase the response rate to therapy among hypertensive patients.

[2] = tested on: conscious dogs; test: Hypotensive effects in conscious dogs before and after furosemide; type: in vivo
Description: as §1

[3] = tested on: Renal Hypertensive Rats; test: Antihypertensive effects in renal hypertensive rats; type: in vivo; conditions: Rattus norvegicus; for minimal effective dose at 3 mg/kg / minimal effective dose at 30 mg/kg: Table 26; for minimal effective dose at 30 mg/kg: oral
Procedure, shortened: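 Renal hypertensive rats (renin-driven AII elevation) dosed orally at 100 mg/kg and/or i.v. via jugular cannula at 10 mg/kg; a second set used 30 mg/kg oral and 3 mg/kg i.v. Arterial pressure recorded continuously via carotid cannula and compared with pretreatment levels.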

[4] = biological target: AII receptor; test: Angiotensin II receptor binding (displacement of 3H-AII); conditions: read-out: Angiotensin II Receptor Binding IC50, rat adrenal cortical microsomes, 2 nM 3H-AII, 1 hour, room temperature
Procedure, shortened: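 The receptor source was rat adrenal cortical microsomes in Tris buffer, incubated with 2 nM ³H-AII plus or minus test compound for 1 h at room temperature. Bound and free ligand were separated by rapid filtration on glass-fibre filters. Filter-bound ³H-AII was counted by scintillation.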

[5] = tested on: AII; conditions: cited from earlier work
[6] = tested on: renal vasoconstrictor effect of NSAID; conditions: cited from earlier work
[7] = tested on: Plasma renin activity (PRA); test: Plasma renin activity in conscious dogs; type: in vivo; conditions: three dogs, furosemide 10 mg/kg im at 18 and 2 hours before; PRA before 1.5±0.5
Description: as §1

Row | SMILES | minimal effective dose at 3 mg/kg ([3]; intravenous) [mg/kg] | minimal effective dose at 30 mg/kg [3] [mg/kg] | IC50 ([4]; Table 26) [nM] | other results
1 | CCCCc1nc(Cl)c(CO)n1Cc1ccc(-c2ccccc2-c2nnn[nH]2)cc1 |  |  |  | inhibition of pressor response to AII, before furosemide ([1]; cumulative iv 0.3 to 3 mg/kg, AII 0.1 μg/kg iv, 10 min post dose): effective in inhibiting the pressor response to AII; inhibition of pressor response to AII, after furosemide ([1]; iv, after furosemide 10 mg/kg im): inhibited the pressor response to AII at the two higher doses; blood pressure, after furosemide ([2]; conscious dogs, cumulative iv 0.3 to 3 mg/kg after furosemide 10 mg/kg im at 18 and 2 hours before): caused a significant decrease in blood pressure in a dose-dependent manner; blood pressure, before furosemide ([2]; normotensive conscious dogs, cumulative iv 0.3 to 3 mg/kg, n=4): did not lower blood pressure
2 | CCCCc1nc(Cl)c(C=NNS(=O)(=O)c2ccccc2)n1Cc1ccc(-c2ccccc2-c2nnn[nH]2)cc1 [Example 327, 2-n-Butyl-4-chloro-1-[(2'-(1H-tetrazol-5-yl)biphenyl-4-yl)methyl]-imidazole-5-carboxaldehyde, benzenesulfonylhydrazone] | > 3 | > 30 | 660 | 
3 | CCCCc1nc(Cl)c(C=NNC2=NCCN2)n1Cc1ccc(-c2ccccc2-c2nnn[nH]2)cc1 [Example 327A] | < 3 | < 30 | 290 | 
4 | CCCCc1nc(Cl)c(C=NNC2=NCCN2)n1Cc1cccc(-c2ccccc2-c2nnn[nH]2)c1 [Example 327D] | > 3 | > 30 | 5200 | 
5 | CCCc1nc(C(=O)O)c(C(=O)O)n1Cc1ccc(-c2ccccc2C(=O)O)cc1 [Example 328] | < 3 | < 30 | 6700 | 
6 | CCCc1nc(C(=O)O)c(C(=O)O)n1Cc1ccc(-c2ccccc2-c2nnn[nH]2)cc1 [Example 329] | < 3 | < 30 | 76 | 
7 | CCCc1nc(C(=O)OC)c(C(=O)OC)n1Cc1ccc(-c2ccccc2-c2nnn[nH]2)cc1 [Example 333, 4,5-Dicarbomethoxy-2-n-propyl-1-[(2'-(1H-tetrazol-5-yl)biphenyl-4-yl)methyl]imidazole] | < 3 | < 30 | 51 | 
8 | CCCc1nc(C(=O)OC)c(CO)n1Cc1ccc(-c2ccccc2-c2nnn[nH]2)cc1 [Example 334, 4-Carbomethoxy-5-hydroxymethyl-2-n-propyl-1-[(2'-(1H-tetrazol-5-yl)biphenyl)-methyl]imidazole] | < 3 | < 30 | 15 | 
9 | CCCc1nc(C(=O)O)c(CO)n1Cc1ccc(-c2ccccc2-c2nnn[nH]2)cc1 [Example 335, 5-Hydroxymethyl-2-n-propyl-1-[(2'-(1H-tetrazol-5-yl)biphenyl)methyl]-imidazole-4-carboxylic acid] | < 3 | < 30 | 260 | 
10 | CCCCc1nc(Cl)c(CO)n1Cc1ccc(-c2ccccc2-c2[nH]nnc2C#N)cc1 [Example 336] | > 3 | > 30 | 280 | 
11 | CCCCc1nc(CO)c(Cl)n1Cc1ccc(-c2ccccc2-c2nn[nH]c2C#N)cc1 [Example 337, 2-n-Butyl-5-chloro-1-[(2'-(5-cyano-1,2,3-triazol-4-yl)biphenyl-4-yl)methyl]-4-hydroxymethylimidazole] | < 3 | > 30 | 760 | 
12 | CCCCc1nc(Cl)c(CO)n1Cc1ccc(-c2ccccc2-c2nn[nH]c2C(=O)OC)cc1 [Example 338, 2-n-Butyl-4-chloro-1-[(2'-(5-carbomethoxy-1,2,3-triazol-4-yl)biphenyl-4-yl)methyl]-5-hydroxymethylimidazole] | > 3 | > 30 | 260 | 
13 | CCCCc1nc(CO)c(Cl)n1Cc1ccc(-c2ccccc2-c2[nH]nnc2C(=O)OC)cc1 [Example 339, 2-n-Butyl-5-chloro-1-[(2'-(5-carbomethoxy-1,2,3-triazol-4-yl)biphenyl-4-yl)-methyl]-5-hydroxymethylimidazole] | < 3 | < 30 | 1700 | 
14 | CCCCc1nc(Cl)c(CO)n1Cc1ccc(-c2ccccc2-c2n[nH]c(C(F)(F)F)n2)cc1 [Example 340, 2-n-Butyl-4-chloro-5-hydroxymethyl-1-[(2'-(5-trifluoromethyl-1,2,4-triazol-3-yl)biphenyl-4-yl)methyl]imidazole] | < 3 | < 30 | 370 | 
15 | CCCCc1nc(Cl)c(CO)n1Cc1ccc(-c2c(C#N)cccc2-c2nnn[nH]2)cc1 [Example 343, 2-n-Butyl-4-chloro-1-[(2'-cyano-6'-(1H-tetrazol-5-yl)biphenyl-4-yl)methyl]-5-hydroxymethylimidazole] | < 3 | > 30 | 510 | 
16 | CCCCc1nc(Cl)c(-c2nnn[nH]2)n1Cc1ccc(-c2ccccc2-c2nnn[nH]2)cc1 [Example 344, 2-n-Butyl-4-chloro-5-(1H-tetrazol-5-yl)-1-[(2'-(1H-tetrazol-5-yl)biphenyl-4-yl)methyl]-imidazole] | < 3 | < 30 | 160 | 
17 | CCCCc1nc(Cl)c(-c2[nH]nnc2C(=O)O)n1Cc1ccc(-c2ccccc2-c2nnn[nH]2)cc1 [Example 345, 2-n-Butyl-5-(4-carboxy-1,2,3-triazol-5-yl)-4-chloro-1-[(2'-(1H-tetrazol-5-yl)biphenyl-4-yl)methyl]imidazole] | < 3 |  | 1100 | 
18 | CCCCc1nc(Cl)c(CN2CCN(c3ccccc3OC)CC2)n1Cc1ccc(-c2ccccc2C(=O)O)cc1 [Example 346, 2-n-Butyl-1-[(2'-carboxybiphenyl-4-yl)methyl]-4-chloro-5-[(1-(2-methoxyphenyl)piperazin-4-yl)methyl]imidazole] |  |  |  | minimal effective dose at 10 mg/kg ([3]; Table 25, intravenous, 10 mg/kg or less): < 10 mg/kg; IC50 ([4]; Table 25): 740 nM
19 | CCCCc1nc(Cl)c(C(=O)N2CCN(c3ccccc3OC)CC2)n1Cc1ccc(-c2ccccc2-c2nnn[nH]2)cc1 [Example 347, 2-n-Butyl-4-chloro-5-[4-(2-methoxyphenyl)piperazin-1-ylcarbonyl]-1-[(2'-(1H-tetrazol-5-yl)biphenyl-4-yl)methyl]imidazole] | < 3 | < 30 | 200 | 
20 | CCCCc1nc(C(=O)N2CCN(c3ccccc3OC)CC2)c(Cl)n1Cc1ccc(-c2ccccc2-c2nnn[nH]2)cc1 [Example 348] | < 3 | > 30 | 1300 | 
21 | CNCC(=O)N[C@@H](CCCN=C(N)N)C(=O)N[C@H](C(=O)N[C@@H](Cc1ccc(O)cc1)C(=O)N[C@H](C(=O)N[C@@H](Cc1cnc[nH]1)C(=O)N1CCC[C@H]1C(=O)N[C@@H](C)C(=O)O)C(C)C)C(C)C [Saralasin, [Sar^1, Ala^8] AII] |  |  |  | antagonism of the actions of AII ([5]; Pals et al. 1971, pithed rats): one of the most potent competitive antagonists of the actions of AII; arterial pressure ([5]; mammals and man, elevated pressure dependent on circulating AII): lower arterial pressure in mammals and man; oral efficacy ([5]; oral doses): oral doses being ineffective; pressor effects ([5]; when the pressure is not sustained by AII): generally elicits pressor effects when the pressure is not sustained by AII; effect on renal vasoconstrictor effect of indomethacin and meclofenamate ([6]; dogs): inhibit the renal vasoconstrictor effect of indomethacin and meclofenamate in dogs
22 | C[C@H](CS)C(=O)N1CCC[C@H]1C(=O)O [captopril, Captopril] |  |  |  | effect on renal vasoconstrictor effect of indomethacin ([6]; dogs with non-hypotensive hemorrhage): reverse the renal vasoconstrictor effect of indomethacin in dogs
23 | NS(=O)(=O)c1cc(C(=O)O)c(NCc2ccco2)cc1Cl [furosemide] |  |  |  | Plasma renin activity (PRA) after furosemide [7]: 19.9±7.2 ng AI/ml/hr
